Results taken from patent US9387221B2, “SDF-1 binding nucleic acids and the use thereof in cancer treatment” (NOXXON Pharma AG, priority 2010, dated 2016).
[L-RNA-N] = L-ribonucleotide (mirror-image RNA, Spiegelmer), made from L-configured RNA phosphoramidites (N: the base); {PEG40k} = 40 kDa poly(ethylene glycol)

Tests used:
[1] = system: biotinylated human D-SDF-1; test: Direct pull-down binding assay; conditions: aptamer (D-RNA), 37° C.; read-out: equilibrium binding constant KD, pull-down binding assay
Protocol: The affinity of aptamers to biotinlayted human D-SDF-1 was measured in a pull-down binding assay format at 37° C. Aptamers were 5′-phosphate labeled by T4 polynucleotide kinase (Invitrogen, Karlsruhe, Germany) using [γ-^32P]-labeled ATP (Hartmann Analytic, Braunschweig, Germany). The specific radioactivity of labeled aptamers was 200,000-800,000 cpm/pmol. Aptamers were incubated after de- and renaturation at 10, 20, 30 or 40 pM concentration at 37° C. in selection buffer (20 mM Tris-HCl pH 7.4; 137 mM NaCl; 5 mM KCl; 1 mM MgCl2; 1 mM CaCl2; 0.1% [w/vol] Tween-20) together with varying amounts of biotinlayted human D-SDF-1 for 4-12 hours in order to reach equilibrium at low concentrations. Selection buffer was supplemented with 10 μg/ml human serum albumin (Sigma-Aldrich, Steinheim, Germany), and 10 μg/ml yeast RNA (Ambion, Austin, USA) in order to prevent adsorption of binding partners with surfaces of used plasticware or the immobilization matrix. The concentration range of biotinlayted human D-SDF-1 was set from 8 pM to 100 nM; total reaction volume was 1 ml. Peptide and peptide-aptamer complexes were immobilized on 1.5 μl Streptavidin Ultralink Plus particles (Pierce Biotechnology, Rockford, USA) which had been preequilibrated with selection buffer and resuspended in a total volume of 6 μl. Particles were kept in suspension for 30 min at the respective temperature in a thermomixer. Immobilized radioactivity was quantitated in a scintillation counter after detaching the supernatant and appropriate washing. The percentage of binding was plotted against the concentration of biotinlayted human D-SDF-1 and dissociation constants were obtained by using software algorithms (GRAFIT; Erithacus Software; Surrey U.K.) assuming a 1:1 stoichiometry.

SDF-1 = SDF-1 (Homo sapiens, UniProt P48061); test: Inhibition of SDF-1-induced chemotaxis, Jurkat cells; type: cell-based; conditions: for IC50: Spiegelmer, Jurkat cells migrating towards 0.3 nM human SDF-1, 3 h, 37° C., read-out: IC50, cell culture in vitro chemotaxis assay
Chain of SDF-1 (P48061 22-89): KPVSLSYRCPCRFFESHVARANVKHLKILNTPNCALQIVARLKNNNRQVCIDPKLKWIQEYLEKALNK
Protocol: The human T cell leukemia cell line Jurkat, the human leukemic monocyte lymphoma cell line U937, the human pre-B cell leukemia cell line BV-173 and human pre-B ALL cell line Nalm-6 express CXCR4. […] All cells used were obtained from the DSMZ (Braunschweig). All cell lines were cultivated at 37° C. and 5% CO2 in RPMI 1640 medium with Glutamax (Invitrogen, Karlsruhe, Germany) which contains 10% fetal bovine serum, 100 units/ml penicillin and 100 μg/ml streptomycin (Invitrogen, Karlsruhe, Germany). One day before the experiment, cells were seeded in a new T175 flask with a density of 0.3×10^6/ml (Jurkat, U937, BV-173) or 0.75×10^6/ml (Nalm-6), respectively.
For the experiment, cells were centrifuged (5 min at 300 g), resuspended, counted and washed once with 15 ml HBH (Hanks balanced salt solution containing 1 mg/ml bovine serum albumin and 20 mM HEPES; Invitrogen, Karlsruhe, Germany). Then the cells were resuspended at 1.33×10^6/ml (Jurkat, U937, BV-173) or 2.67×10^6/ml (Nalm-6), respectively. Cells were then allowed to migrate through the porous membranes of the filter plates for three hours towards a solution containing SDF-1 and various amounts of Spiegelmer. The stimulation solutions (SDF-1+various concentrations of Spiegelmer) were made up as 10× solutions in a 0.2 ml low profile 96-tube plate. 212 μl HBH were pipetted into the lower compartments of the transport plate and 23.5 μl of the stimulation solutions were added. All conditions were made up as triplicates. After 20 to 30 min the filter plate was inserted into the plate containing the stimulation solutions and 75 μl of a cell suspension with 1.33×10^6/ml or 2.67×10^6/ml, respectively, were added to the wells of the filter plate (1×10^5 or 2×10^5 cells/well). The cells were then allowed to migrate for 3 h at 37° C. For calibration, 0, 10 and 30 μl of the cell suspension was added to 235, 225 and 205 μl HBH, respectively, in wells of a separate 96-well plate. After 3 hours incubation, the insert plate was removed and 30 μl resazurin working solution (440 μM in PBS) were added to the lower wells and to the wells of the calibration plate. The plates were then incubated at 37° C. for 2.5 h. After incubation, 100 μl of each well were transferred to a black 96 well plate.
For evaluation, fluorescence values were corrected for background fluorescence (no cells in well). Then the difference between experimental conditions with and without SDF-1 was calculated. The value for the sample without Spiegelmer (SDF-1 only) was set 100% and the values for the samples with Spiegelmer were calculated as percent of this. For a dose-response curve the percent-values were plotted against Spiegelmer concentration and the IC50-value (concentration of Spiegelmer at which 50% of the activity without Spiegelmer is present) was determined graphically from the resulting curve.

[2] = system: SDF-1 induced sprouting, rings from rat aorta; test: Aortic ring sprouting assay; type: cell-based; conditions: 10 nM SDF-1 + 1 μM Spiegelmer, 6 days
Protocol: After 6 to 7 days, sprouting (i.e. outgrowth of endothelial cells) was analysed by taking pictures and determining a sprouting index.
Aortae from male rats were obtained from Bagheri Life sciences (Berlin, Germany). The aortae were prepared freshly and transported on ice in MCDB 131-Medium (Invitrogen, Karlsruhe, Germany) containing 50 units/ml penicillin, 50 μg/ml streptomycin (both Invitrogen, Karlsruhe, Germany) and 2.5 μg/ml fungizone (Cambrex, USA).
For an experiment a single aorta was transferred to a cell culture dish together with the medium and residual connective tissue was removed. Then the aorta was cut with a scalpel into rings of about 1 to 2 mm length. The rings were washed intensively (at least five times) in Medium199 (Invitrogen, Karlsruhe, Germany) and then placed in wells of a 24 well plate, containing 450 μl of collagen solution per well. […]
Sprouting was documented by taking pictures with a digital camera. […] Pictures were analysed with the Scion Image image processing software. […] A plot histogram along this line was generated by the software, histograms were printed and peaks (representing sprouts crossing the line) were counted. […] 4 to 5 rings per condition were evaluated. […]

human SDF-1α = human SDF-1α (Homo sapiens, UniProt P48061); test: Surface plasmon resonance measurement (Biacore 2000); type: binding; conditions: Spiegelmer (L-RNA), 37° C.
Chain of human SDF-1α (P48061 22-89): as above
Protocol: The Biacore 2000 instrument (Biacore AB, Uppsala, Sweden) was used to analyze binding of Spiegelmers to human SDF-1α. When coupling of human SDF-1α was to be achieved via amine groups, human SDF-1α was dialyzed against water for 1-2 h (Millipore VSWP mixed cellulose esters; pore size, […]) to remove interfering amines. CM4 sensor chips (Biacore AB, Uppsala, Sweden) were activated before protein coupling by a 35-μl injection of a 1:1 dilution of 0.4 M NHS and 0.1 M EDC at a flow of 5 μl/min. Human MCP-1 or human SDF-1α was then injected in concentrations of 0.1-1.5 μg/ml at a flow of 2 μl/min until the instrument's response was in the range of 1000-2000 RU (relative units). Unreacted NHS esters were deactivated by injection of 35 μl ethanolamine hydrochloride solution (pH 8.5) at a flow of 5 μl/min. The sensor chip was primed twice with binding buffer and equilibrated at 10 μl/min for 1-2 hours until the baseline appeared stable. For all proteins, kinetic parameters and dissociation constants were evaluated by a series of Spiegelmer injections at concentrations of 1000, 500, 250, 125, 62.5, 31.25, and 0 nM in selection buffer (Tris-HCl, 20 mM; NaCl, 137 mM; KCl, 5 mM; CaCl2, 1 mM; MgCl2, 1 mM; Tween20, 0.1% [w/v]; pH 7.4). In all experiments, the analysis was performed at 37° C. using the Kinject command defining an association time of 180 and a dissociation time of 360 seconds at a flow of 10 μl/min. Data analysis and calculation of dissociation constants (KD) was done with the BIAevaluation 3.0 software (BIACORE AB, Uppsala, Sweden) using the Langmuir 1:1 stochiometric fitting algorithm.

[3] = system: biotinylated human D-SDF-1; test: Competitive pull-down binding assay; conditions: for binding affinity in competitive pull-down binding assay vs. 192-A10-001: aptamer level, reference 192-A10-001
Protocol: In order to compare different D-SDF-1 binding aptamers, a competitive ranking assay was performed. For this purpose the most affine aptamer available was radioactively labeled (see above) and served as reference. […] An excess of de- and renatured non-labeled D-RNA aptamer variants was added to different concentrations (e.g. 2, 10, and 50 nM) with the labeled reference aptamer to parallel binding reactions. The aptamers to be tested competed with the reference aptamer for target binding, thus decreasing the binding signal in dependence of their binding characteristics.

Substance	Kd [1]	IC50 (SDF-1)	Kd (human SDF-1α)	binding affinity in competitive pull-down binding assay vs. 192-A10-001 [3]	other results
GCUGUGAAAGCAACAUGUCAAUGAAAGGUAGCCGCAGC (aptamer; Made as D-RNA aptamer and L-RNA Spiegelmer, tested form not given here, further chemistry not given here) [192-A10-001]	1.5 nM	0.12 nM	–	–	–
5′-40 kDa-PEG-UAAGGAAACUCGGUCUGAUGCGGUAGCGCUGUGCAGAGCU (all [L-RNA-N], 5' {PEG40k}, backbone not given here) [Control Spiegelmer, reference compound]	–	–	–	–	blockage of SDF-1 induced sprouting (sprouting index) [2]: No blockage; inhibition of SDF-1 induced chemotaxis (SDF-1; Jurkat cells, Control Spiegelmer up to 1 μM): no inhibitory effect
AGCGUGGCGAGGUUAGGGCUAGAAGUCGGUCGACACGCU (Made as D-RNA aptamer and L-RNA Spiegelmer, tested form not given here, further chemistry not given here) [191-D5-001]	–	–	0.8 nM	weaker binding affinities	–
AGCGUGGUGUGAUCUAGAUGUAUUGGCUGAUCCUAGUCAGGUACGCU (chemistry not fully specified) [193-G2-001]	0.3 nM	0.08 nM	–	superior binding	–
CGGGAGGUUAGGGCUAGAAGUCGGUCCCG (chemistry not fully specified) [191-D5-007]	2.2 nM	0.1 nM	0.8 nM	–	influence of the PEG-moiety on Spiegelmers potency to inhibit SDF-1 induced chemotaxis (SDF-1; Spiegelmer coupled to 40 kDa PEG at the 5′-end): no influence; binding affinity in competitive pull-down binding assay vs. 191-D5-001 ([3]; reference 191-D5-001): somewhat better
GAGAUAGGGGUUAGGGCUUAAAGUCGGCUGAUUCUC (aptamer; Made as D-RNA aptamer and L-RNA Spiegelmer, tested form not given here, further chemistry not given here) [190-A3-004]	4.6 nM	0.1 nM	4.7 nM	–	binding affinity of derivatives of 190-A3-001 ([3]; compared with 190-A3-001): does not have an influence on the binding affinity
GUGCUGCGGGGGUUAGGGCUAGAAGUCGGCCUGCAGCAC (aptamer; chemistry not fully specified) [197-B2]	–	–	0.9 nM	weaker binding affinities	binding affinity in competitive pull-down binding assay vs. 191-D5-007 ([3]; reference 191-D5-007): same binding affinity to SDF-1 as 191-D5-007
GCGUGGUGUGAUCUAGAUGUAUUGGCUGAUCCUAGUCAGGUACGC (chemistry not fully specified) [193-G2-012]	0.3 nM	–	–	–	–
